Source: patent publication US12091656B2, “Method for generating higher order genome editing libraries” (Johann Wolfgang Goethe-Universität Frankfurt am Main, priority 2016, dated 2024)

Assays:
RPE1 cells [1] = experiment: Titration of CYSLTR2 antagonists against Doxorubicin, AlamarBlue cell viability assay; format: cell-based, human; conditions: 4 days
Protocol: FIG. 6: Identifying Doxorubicin resistance with an optimized 3Cs-gRNA library. A) Experimental scheme illustrating the usage of hTERT-RPE1 cells, transduced with lentiviral particles (MOI=1) and selected with 1 μM Doxorubicin for three weeks. B) NGS- and bioinformatically-based identification of Doxorubicin-resistance inducing gRNAs and their location within annotated human genomic DNA. C) The CYSLTR2 gene is a reproducible protein-coding hit for which two chemical inhibitors are commercially available. Both inhibitors are titrated versus increasing concentrations of Doxorubicin and induce resistance to Doxorubicin.
Of all remaining gRNAs, 45.6% are located in coding regions, 22.2% are in introns and 10.5% are in non-coding (RNA coding) regions (FIG. 6b). However, 21.7% of gRNAs are located in genomic regions for which no biotype could be assigned, indicating a gap of knowledge for those regions (FIG. 6b). To validate some of the findings in a CRISPR/Cas independent manner, the protein-coding hit gene CYSLTR2 was chosen for which two chemical antagonists are commercially available. The inventors titrated increasing concentrations of Doxorubicin against increasing concentrations of the two compounds (BayCysLTR2 and Bay u9773) and incubated drug exposed RPE1 cells for 4 days after which they were subject to the cell viability assays AlamarBlue.

RPE1 cells [2] = experiment: Doxorubicin effect on RPE1 cell viability (unperturbed conditions); format: cell-based, human; conditions: within 4 days

Row | SMILES | strength of the reversion effect compared with the other CYSLTR2 antagonist (RPE1 cells [1]; FIG. 6c) | reversion of the cytotoxic effect of Doxorubicin (RPE1 cells [1]; increasing concentrations titrated against increasing Doxorubicin) | reduction of RPE1 cell viability (RPE1 cells [2])
1 | CCCCC/C=C\C\C=C/C=C/C=C/[C@@H](Sc1ccc(C(=O)O)cc1)[C@@H](O)CCCC(=O)O [Bay u9773] | reproducibly stronger effect | able to revert the cytotoxic effect of Doxorubicin in a dose-dependent manner | –
2 | COc1cccc2c1C(=O)c1c(O)c3c(c(O)c1C2=O)C[C@@](O)(C(=O)CO)C[C@@H]3O[C@H]1C[C@H](N)[C@H](O)[C@H](C)O1 [Doxorubicin] | – | – | robust and dose-dependent reduction of RPE1 cell viability
